Read-outs that look alike come from different tables or passages of the source.
Experiments:
Type in all cases: cell-based
[1] = tested on: HIV-1 clinical isolated, characterised by mutations in the protease gene inducing geno-phenotypic resistance to SQV; test: p24 production susceptibility test (ACTG protocol), Table 8; settings: for EC50: Human immunodeficiency virus 1, PBMC, read-out: E.C.50 HCQ; for S.I. HCQ / Fen. HCQ (fold): PBMC; for S.I. HCQ: I.C.50/E.C.50; for Fen. HCQ (fold): ratio to HIV-IIIB
Description: (§1) For the phenotype of the nucleosidic, non-nucleosidic and proteases inhibitors was utilised a method which consider the use of human PBMC and the protocol standardised by the AIDS Clinical Trials Group, after verifying the genotype by sequence analysis.
(§2) In order to assay in vitro the susceptibility to chloroquine and hydroxychloroquine of the viral strains, it was used the protocol of the ACTG which is characterised by the measure, of the production of antigen p24 in strongly infected cells.
(§3) The susceptibility of the viral strains to chemotherapics was determined in cell cultures, prepared in 96 wells microplates, using, for the infection, 0.1 MOI.
(§4) The supernatant of the infected cultures (either in absence or in presence of different concentrations of chemotherapic) were tested for the production of p24 after 7 days, using an ELISA test which is commercially available.
(§5) The concentrations of chloroquine and hydroxychloroquine tested ranged from 0.5 to 15 uM. At the same time non-infected cells were incubated with concentrations of chloroquine and hydroxychloroquine ranging from 0 to 50 uM to evaluate the toxicity of the compound.
(§6) After 4 day from the infection, half the cellular medium was replaced with a medium containing the corresponding dilution of chloroquine and hydroxychloroquine. The percentage of inhibition of the HIV replication, induced by chloroquine and hydroxychloroquine, was determined, after 7 day from the infection, comparing the levels of p24 of this cultures and that of the control, infected and not treated with chloroquine and hydroxychloroquine.
(§7) Therefore, the E.C.50 of chloroquine and hydroxychloroquine expresses the concentration of chemotherapic that inhibits the 50% of production of p24 and the values were calculated using linear and non linear regression analysis (the significativity for the non linear regression was R^2>0.95).
(§8) In the same experimental conditions and in the same day, but with similar concentrations of chloroquine and hydroxychloroquine, it was evaluated the vitality of the infect cell cultures, and this was expressed as I.C.50.
(§9) I.C.50 (Inhibitory Concentration) indicates the concentration of the chemotherapic agent inhibiting the vitality of the cell cultures at a rate of 50%, when there is not infection.

[2] = tested on: HIV-1 strains geno-phenotypically resistant to EFV; test: p24 production susceptibility test, Table 7, MT-2 cells; settings: for EC50: Human immunodeficiency virus 1, MT2, MT-2, read-out: E.C.50 HCQ; for S.I. HCQ / Fen. HCQ (fold): MT-2; for S.I. HCQ: I.C.50/E.C.50; for Fen. HCQ (fold): ratio to HIV-IIIB
Description: as §1, §2, §3, §4, §5, §6, §7, §8, §9

[3] = tested on: HIV-1 clinical isolated, characterised by mutations in the protease gene inducing geno-phenotypic resistance to IDV; test: p24 production susceptibility test (ACTG protocol), Table 9; settings: for EC50: Human immunodeficiency virus 1, PBMC; for S.I. HCQ: I.C.50/E.C.50; for Fen. HCQ (fold): ratio to HIV-IIIB
Description: as §1, §2, §3, §4, §5, §6, §7, §8, §9

[4] = tested on: HIV-1 clinical isolated, characterised by mutations in the RT gene inducing geno-phenotypic resistance to d4T; test: p24 production susceptibility test (ACTG protocol), Table 4; settings: for EC50: Human immunodeficiency virus 1, PBMC, read-out: E.C.50 HCQ; for S.I. HCQ / Fen. HCQ (fold): PBMC; for S.I. HCQ: I.C.50/E.C.50; for Fen. HCQ (fold): ratio to HIV-IIIB
Description: as §1, §2, §3, §4, §5, §6, §7, §8, §9

[5] = tested on: HIV-1 strains cultivated in PBMC and isolated from patient naive to the treatment; test: p24 production susceptibility test (ACTG protocol), Table 11; settings: for EC50: Human immunodeficiency virus 1, PBMC; for S.I. HCQ: I.C.50/E.C.50
Description: as §2, §3, §4, §5, §6, §7, §8, §9

[6] = tested on: HIV-1 clinical isolated, characterised by mutations on the protease gene inducing geno-phenotypic resistance to NFV; test: p24 production susceptibility test, Table 10, H-9 cells; settings: for S.I. HCQ / Fen. HCQ (fold): H-9; for S.I. HCQ: I.C.50/E.C.50; for Fen. HCQ (fold): ratio to HIV-IIIB; for EC50: Human immunodeficiency virus 1, H9, H-9, read-out: E.C.50 HCQ
Description: as §1, §2, §3, §4, §5, §6, §7, §8, §9

[7] = PBMC, Gen. K20R E35D M36I I54V V82T
[8] = Gen. K65R F77L Y115F Q151M M184V

CCN(CCO)CCCC(C)Nc1ccnc2cc(Cl)ccc12 (centres unmarked) [HCQ, hydroxychloroquine]
EC50 ([1]; Gen. G48V I84V A74V L90M): 1500 nM | EC50 ([1]; Gen. G48V V82A): 3000 nM | EC50 ([1]; Gen. I84V L90M): 2800 nM | EC50 ([1]; Gen. M46I G48V L63P L90M): 1800 nM | EC50 ([1]; Gen. V82A L90M): 1800 nM | S.I. HCQ ([1]; Gen. G48V I84V A74V L90M): 4 | Fen. HCQ (fold) ([1]; Gen. G48V I84V A74V L90M): 0.8X fold | S.I. HCQ ([1]; Gen. G48V V82A): 3 | Fen. HCQ (fold) ([1]; Gen. G48V V82A): 1.6X fold | S.I. HCQ ([1]; Gen. I84V L90M): 3 | Fen. HCQ (fold) ([1]; Gen. I84V L90M): 1.5X fold | S.I. HCQ ([1]; Gen. M46I G48V L63P L90M): 6 | Fen. HCQ (fold) ([1]; Gen. M46I G48V L63P L90M): 1X fold | S.I. HCQ ([1]; Gen. V82A L90M): 5.5 | Fen. HCQ (fold) ([1]; Gen. V82A L90M): 1X fold | EC50 ([2]; Gen. K101D K103N): 2500 nM | EC50 ([2]; Gen. K103N V108D): 2800 nM | EC50 ([2]; Gen. K103N Y181C): 2500 nM | EC50 ([2]; Gen. K103N): 2800 nM | EC50 ([2]; Gen. L100I K103N): 3200 nM | EC50 ([2]; Gen. Y181C): 1500 nM | S.I. HCQ ([2]; Gen. K101D K103N): 8.8 | Fen. HCQ (fold) ([2]; Gen. K101D K103N): 1.6X fold | S.I. HCQ ([2]; Gen. K103N V108D): 7.8 | Fen. HCQ (fold) ([2]; Gen. K103N V108D): 1.8X fold | S.I. HCQ ([2]; Gen. K103N Y181C): 8.5 | Fen. HCQ (fold) ([2]; Gen. K103N Y181C): 1.6X fold | S.I. HCQ ([2]; Gen. K103N): 8.7 | Fen. HCQ (fold) ([2]; Gen. K103N): 1.8X fold | S.I. HCQ ([2]; Gen. L100I K103N): 6 | Fen. HCQ (fold) ([2]; Gen. L100I K103N): 2.1X fold | S.I. HCQ ([2]; Gen. Y181C): 8.7 | Fen. HCQ (fold) ([2]; Gen. Y181C): 1X fold | EC50 ([3]; PBMC, Gen. G48V V82A, read-out: E.C.50 HCQ): 2.8 µM | EC50 ([3]; PBMC, Gen. I84V L90M, read-out: E.C.50 HCQ): 1.8 µM | EC50 ([3]; PBMC, Gen. K20R E35D M36I I54V V82T, read-out: E.C.50 HCQ): 2.2 µM | EC50 ([3]; PBMC, Gen. V82F L90M, read-out: E.C.50 HCQ): 3.3 µM | EC50 ([3]; read-out: E.C.50 HCQ (uM), PBMC, Gen. L10R M46I L63P V82T): 1.8 µM | S.I. HCQ ([3]; PBMC, Gen. G48V V82A): 3 | Fen. HCQ (fold) ([3]; PBMC, Gen. G48V V82A): 1.5X fold | S.I. HCQ ([3]; PBMC, Gen. I84V L90M): 5.5 | Fen. HCQ (fold) ([3]; PBMC, Gen. I84V L90M): 1X fold | S.I. HCQ [3, 7]: 4.5 | Fen. HCQ (fold) [3, 7]: 1.2X fold | S.I. HCQ ([3]; PBMC, Gen. L10R M46I L63P V82T): 5 | Fen. HCQ (fold) ([3]; PBMC, Gen. L10R M46I L63P V82T): 0.8X fold | S.I. HCQ ([3]; PBMC, Gen. V82F L90M): 2.5 | Fen. HCQ (fold) ([3]; PBMC, Gen. V82F L90M): 1.7X fold | EC50 [4, 8]: 3500 nM | EC50 ([4]; Gen. K65R F116Y Q151M): 3000 nM | EC50 ([4]; Gen. M41I T69SSS T215Y): 2500 nM | EC50 ([4]; Gen. T69SSS T215Y): 3000 nM | EC50 ([4]; Gen. V75I F77L F116Y Q151M): 3000 nM | S.I. HCQ [4, 8]: 3.3 | Fen. HCQ (fold) [4, 8]: 2.3X fold | S.I. HCQ ([4]; Gen. K65R F116Y Q151M): 3.3 | Fen. HCQ (fold) ([4]; Gen. K65R F116Y Q151M): 2.2X fold | S.I. HCQ ([4]; Gen. M41I T69SSS T215Y): 3.6 | Fen. HCQ (fold) ([4]; Gen. M41I T69SSS T215Y): 1.6X fold | S.I. HCQ ([4]; Gen. T69SSS T215Y): 3.3 | Fen. HCQ (fold) ([4]; Gen. T69SSS T215Y): 2X fold | S.I. HCQ ([4]; Gen. V75I F77L F116Y Q151M): 4 | Fen. HCQ (fold) ([4]; Gen. V75I F77L F116Y Q151M): 2X fold | EC50 ([5]; HIV-1 virus sensitive to the anti-retroviral treatment, range over each experiment, read-out: E.C.50): 1500 to 3500 nM | EC50 ([5]; PBMC, Virus N°1, read-out: E.C.50 HCQ): 2200 nM | EC50 ([5]; PBMC, Virus N°2, read-out: E.C.50 HCQ): 1800 nM | EC50 ([5]; PBMC, Virus N°3, read-out: E.C.50 HCQ): 1500 nM | EC50 ([5]; PBMC, Virus N°4, read-out: E.C.50 HCQ): 2200 nM | EC50 ([5]; PBMC, Virus N°5, read-out: E.C.50 HCQ): 1800 nM | S.I. HCQ ([5]; PBMC, Virus N°1): 4.5 | S.I. HCQ ([5]; PBMC, Virus N°2): 5 | S.I. HCQ ([5]; PBMC, Virus N°3): 6 | S.I. HCQ ([5]; PBMC, Virus N°4): 4 | S.I. HCQ ([5]; PBMC, Virus N°5): 4.5 | S.I. HCQ ([6]; Gen. D30N): 4.4 | Fen. HCQ (fold) ([6]; Gen. D30N): 1.2X fold | S.I. HCQ ([6]; Gen. V82A): 5.5 | Fen. HCQ (fold) ([6]; Gen. V82A): 1.3X fold | EC50 ([6]; Gen. D30N): 2200 nM | EC50 ([6]; Gen. V82A): 2500 nM
